Laboratory results: publication PMC9157191, “The ex vivo pharmacology of HIV-1 antiretrovirals differs between macaques and humans” (iScience, 2022)
Several values for one entry are separate records, joined by “and”; a condition that tells them apart may be missing. Equal entries are not always repeated.

How the values were obtained:
RT-SHIV [1] = experiment: tissue or blood; format: cell-based; settings: for p27 AUC3-15: Rhesus macaque colorectal explants
SIVmac32H K65R = format: cell-based, SIV
RT-SHIV [2] = experiment: tissue or blood; format: cell-based; settings: for p27 AUC3-15: Rhesus macaque vaginal explants
HIV-1YU.2 K65R = experiment: microbe, parasite or virus in culture; format: cell-based; settings: Human colorectal explants;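 for p24 AUC3-15: high arm above the IC50 and low arm below the IC50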
[3] = Drug concentrations in human ecto-cervical tissue explants (LC-MS/MS); settings: for AUC3h-15d / Cmax: Human ecto-cervical explants, 3 h exposure; for Cmax: human, ecto-cervical tissue explants
[4] = Drug concentrations in Rhesus macaque vaginal tissue explants (LC-MS/MS); format: in vitro ADME, Rhesus macaque (Macaca mulatta); settings: for AUC3h–15d / Cmax: Rh. macaque vaginal explants, 3 h exposure; for Cmax: monkey, vaginal tissue explants, read-out: Cmax
SIVmac32H M184V = format: cell-based, SIV
[5] = Drug concentrations in human colorectal tissue explants (LC-MS/MS); format: in vitro ADME; settings: for AUC3h-15d / Cmax: Human colorectal explants, 3 h exposure; for Cmax: human, colorectal tissue explants, read-out: Cmax
SIVmac32H K65RM184V = experiment: microbe, parasite or virus in culture; format: cell-based; settings: for p27 AUC3-15: Rhesus macaque cervical explants;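 for p27 AUC3-15: high arm above the IC50 and low arm below the IC50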
[6] = Drug concentrations in Rhesus macaque ecto-cervical tissue explants (LC-MS/MS); format: in vitro ADME, Rhesus macaque (Macaca mulatta); settings: for AUC3h–15d: Rh. macaque ecto-cervical explants, Comb. gel, 3 h exposure
[7] = high concentration: TFV 70 µM, MVC […], or TFV 70 µM + MVC […]
[8] = low concentration: TFV 7 µM, MVC […], or TFV 7 µM + MVC […]
[9] = Comb. gel, High [ ]: TFV 70 µM + MVC […]
[10] = Comb. gel, Low [ ]: TFV 7 µM + MVC […]
[11] = Single gel, High [ ]: TFV 70 µM or MVC […]
[12] = Single gel, Low [ ]: TFV 7 µM or MVC […]

With C[C@H](Cn1cnc2c(N)ncnc21)OCP(=O)(O)O [TFV, Tenofovir] the IC50 (RT-SHIV [1]; Macaca mulatta, 360 h, NHP colorectal explants, day 15) was 30 ± 13.2 µM, the “p27 AUC3-15” value (RT-SHIV [1]; [7]) was 1.45 ± 0.24 µgxd/ml and the “p27 AUC3-15” value (RT-SHIV [1]; [8]) was 4.27 ± 2.75 µgxd/ml. For the same compound, the IC50 (SIVmac32H K65R) was 46.6 ± 12.6 µM, the “p27 AUC3-15” value (SIVmac32H K65R) was 1.43 ± 0.31 µgxd/ml and 1.95 ± 0.54 µgxd/ml and the IC50 (RT-SHIV [2]; Macaca mulatta, 360 h, NHP vaginal explants, day 15) was 52.1 ± 27.3 µM. The “p27 AUC3-15” value (RT-SHIV [2]; [7]) was 1.28 ± 0.27 µgxd/ml, the “p27 AUC3-15” value (RT-SHIV [2]; [8]) was 1.53 ± 0.29 µgxd/ml and the “p24 AUC3-15” value (HIV-1YU.2 K65R; [7]) was 0.41 ± 0.03 µgxd/ml. For the same compound, the “p24 AUC3-15” value (HIV-1YU.2 K65R; [8]) was 0.71 ± 0.06 µgxd/ml, the IC50 (HIV-1YU.2 K65R; Human immunodeficiency virus 1, 360 h, day 15) was 62.4 ± 15.8 µM and the AUC3h-15d [3, 9] was 30.61 ng·days/mg. The AUC3h-15d [3, 10] was 4.409 ng·days/mg, the AUC3h-15d [3, 11] was 25.40 ng·days/mg and the AUC3h-15d [3, 12] was 4.05 ng·days/mg. The “average exposure (AUC3h-15d) fold change” value ([3]; human ecto-cervical compared to colorectal explants) was 3.7 fold, the “AUC3h-15d fold increase, high versus low concentration gels” value ([3]; human ecto-cervical explants) was 6.6 fold and the Cmax fold increase ([3]; human ecto-cervical explants versus macaque tissue) was 5.6 fold. For the same compound, the Cmax [3, 9] was 16600 ng/g, the Cmax [3, 10] was 2380 ng/g and the Cmax [3, 11] was 13600 ng/g. The Cmax [3, 12] was 2030 ng/g, the “AUC3h–15d” value [4, 9] was 10.16 ng·days/mg and the “AUC3h–15d” value [4, 10] was 5.75 ng·days/mg. For the same compound, the “AUC3h–15d” value [4, 11] was 10.25 ng·days/mg, the “AUC3h–15d” value [4, 12] was 4.05 ng·days/mg and the “AUC3h-15d fold increase, high versus low concentration gels” value ([4]; macaque vaginal explants) was 2.1 fold. The Cmax [4, 9] was 1350 ng/g, the Cmax [4, 10] was 770 ng/g and the Cmax [4, 11] was 1370 ng/g. It also gave a Cmax [4, 12] of 540 ng/g, an IC50 (SIVmac32H M184V) of 40.2 ± 30.1 µM and an AUC3h-15d [5, 9] of 6.37 ng·days/mg. The AUC3h-15d [5, 10] was 1.99 ng·days/mg, the AUC3h-15d [5, 11] was 6.62 ng·days/mg and the AUC3h-15d [5, 12] was 2.47 ng·days/mg. The “AUC3h-15d fold increase, high versus low concentration gels” value ([5]; human colorectal tissue) was 2.9 fold, the Cmax [5, 9] was 3670 ng/g and the Cmax [5, 10] was 1170 ng/g. The Cmax [5, 11] was 2920 ng/g, the Cmax [5, 12] was 1320 ng/g and the “p27 AUC3-15” value (SIVmac32H K65RM184V; [7]) was 1.40 ± 0.30 µgxd/ml. The “p27 AUC3-15” value (SIVmac32H K65RM184V; [8]) was 1.65 ± 0.30 µgxd/ml, the IC50 (SIVmac32H K65RM184V; Simian immunodeficiency virus, in Macaca mulatta, 360 h, NHP cervical explants, day 15) was 81.3 ± 50.8 µM and the “AUC3h-15d fold increase on combining the two ARVs” value ([6]; NHP ecto-cervical explants, combination versus single drug) was 2.2 fold. The “AUC3h–15d” value ([6]; High [ ]: TFV 70 µM + MVC […]) was 18.55 ng·days/mg and the “AUC3h–15d” value ([6]; Low [ ]: TFV 7 µM + MVC […]) was 14.11 ng·days/mg.
